Measurements published in patent US20070275425A1, “Device and method for analysis of a metabolic malady” (priority 2004, published 2007).

Tests used:
[1] = test system: lipid bodies in neutrophil cells of ZDF rats; experiment: Lipid bodies per neutrophil cell of leukocyte samples (SEM) from obese ZDF rats treated with anti-diabetic drug; format: in vivo, rat; settings: 10 mg/kg oral gavage five times a week for 20 days
Protocol: (§1) Whole blood samples were obtained from a group of four obese ZDF rats treated with an anti-diabetic drug, Rosiglitazone (10 mg/kg), administered by oral gavage five times a week for 20 days and a group of four untreated obese ZDF rats induced with a saline solution administered by oral gavage five times a week for 20 days.
A whole blood sample was collected in tubes including a solution of heparin. One hour after drawing the whole blood sample from each rat, approximately 75 microliters of whole blood was mixed with 600 microliters of ddH2O and incubated at a temperature of approximately 25° C. for approximately 30 seconds. Then 75 microliters of 10×PBS was added.
Following incubation, the sample was centrifuged at a speed of approximately 1200 rpm for approximately five minutes. Thereafter, resulting supernatant was removed from the leukocyte sample. Approximately 400 microliters of PBS including 0.89 mM calcium and 0.49 mM magnesium was added to the leukocyte sample. The sample was centrifuged again at a speed of approximately 1200 rpm for approximately five minutes. Thereafter, resulting supernatant was removed from the leukocyte sample. Approximately 400 microliters of PBS including 0.89 mM calcium and 0.49 mM magnesium was added to the leukocyte sample. […]

[2] = Fasting glucose test of treated ZDF rats; format: in vivo, rat; settings: obese ZDF rats, 10 mg/kg oral gavage five times a week for 20 days; untreated group 242.25 (SD 14.58); treated SD 14.29
Protocol: as §1
The values of the average number of lipid bodies and average lipid body area correspond to results of a fasting glucose test of the untreated and treated subjects.

## CN(CCOc1ccc(CC2SC(=O)NC2=O)cc1)c1ccccn1 (stereo not drawn) [Rosiglitazone]
[1]; untreated group 1.04 (SD 0.1), treated SD 0.06
  average lipid body area per neutrophil cell of a leukocyte sample: approximately 0.65 μm^2
[1]; untreated group 7.03 (SD 0.83), treated SD 0.24
  average number of lipid bodies per neutrophil cell of a leukocyte sample: approximately 4.09
[2]
  fasting glucose: 110.13 mg/dL
